“Also recorded” adds a separate entry of the source.
What was measured:
[1] = PI mass measurements in HDL after injection of PI vesicles; type: in vivo, rabbit
Description: The clearance of PI from the different lipoproteins may have been due to either a lipoprotein-cellular transfer or to a selective hydrolysis by a charged phospholipid specific phospholipase.

[^3H]-FC in plasma = Clearance of [^3H]-FC from the blood of a rabbit; type: in vivo
Method: (§1) 1-palmitoyl-2-oleoyl-phosphatidylcholine (PC) and 1-palmitoyl-2-oleoyl phosphatidylinositol (PI) vesicles are prepared by drying to completion 40 μmol of each lipid into a 12×75 mm culture tube under N2. The lipids are solubilized in 3 mL of sterile saline comprising 150 mM sodium chloride (pH 7.2) by sonication for 1 minute at constant duty cycle. The vesicles are incubated at 37° C. for 10 minutes and then sonicated at a high output for 4 minutes in 10° C. water bath under N2. In order to determine the rate of clearance of cholesterol from the test animals (rabbits), a radioactive tracer is added to the vesicle preparations prior to injection into the rabbit. 200 μL of 1 μCi/μmL [^3H]-FC is dried into a 12×75 mm culture tube with 40 μmol of PI or POPC. 3 ml of PBS is added to the dried lipids and the mixture is sonicated as described above. This tracer/vesicle preparation is injected and then 5 min later, the PI or PC vesicles were injected and blood is sampled as described below.
(§2) Male New Zealand white rabbits (3.5-4.0 kg) are fasted for 12 hours prior to injection and remain fasted until after data for the final time point is taken. Rabbits have free access to water during this time. A catheter is inserted into the marginal ear vein and blood samples are collected into tubes containing 7.5% (K3) EDTA solution at the desired time points. A pre-injection blood sample is taken and the vesicle solution of either PI (n=4), or PC (n=2) or saline (n=1) is injected into the marginal ear vein. A sample of blood is removed at 10, 30 min, 1, 3, 6 and 24 h after the injection. All blood samples are placed on ice and then centrifuged at 3000 rpm for 15 min at 4° C. to separate the plasma. In order to ensure that lecithin:cholesterol acyl transferase (LCAT) is inhibited in the stored plasma, iodoacetamide (150 mM) is added to plasma samples as taught by Guerin et al. (1994).
Referring now to FIG. 5, there is shown the clearance of [^3H]-FC at various times after rabbits are injected with [^3H]-FC and either PI or PC vesicles. […] In comparison, rabbits injected with PC contain approximately 90% of the injected radioactivity after 1 h.

HDL, LDL and VLDL = assay: Lipoprotein surface charge after injection of PI or PC vesicles into rabbits (agarose gel electrophoresis); type: in vivo, rabbit
Method: as §1, §2
Lipoprotein fractions are isolated by sequential ultracentrifugation (VLDL+IDL, d<1.019 g/mL; LDL, d=1.019-1.063 g/mL; and HDL, d=1.063-1.21 g/mL) as known to one of skill in the art, and lipoprotein lipid composition (total cholesterol, free cholesterol (FC), and triglyceride (TG) concentrations) are determined enzymatically using kits from Roche Diagnostic (Laval, PQ). An aliquot of each lipoprotein isolated is dialysed into PBS and its surface charge characteristics were determined by electrophoresis on pre-cast 0.5% agarose gels using the procedure of Sparks and Phillips (1992).
Referring now to FIG. 1, there is illustrated the effect of injection of PI and PC vesicles on the estimated surface potential of HDL, LDL, and VLDL proteins in vivo. […] PC, which is a neutral phospholipid, may also bind to the lipoproteins. However since PC is a neutral phospholipid, no significant change in the migration of the lipoproteins is observed. The increased migratory property of lipoproteins in a gel peaks following injection of PI and returns to normal by about 24 hours. […] Similarly, the VLDL fraction is estimated to have an initial surface potential of about −8.8 mV, which increases to about −11.2 mV after 10 minutes. LDL is estimated to have an initial surface potential of about −3.9 mV, and peaks about 60 min after the PI injection at about −8.0 mV.

HEPG2 cells = assay: Cellular cholesterol uptake from PI-enriched plasma or lipoproteins; type: cell-based
Description: Almost complete inhibition of the enzyme that produces CE parallelled major increases in the amount of this lipid in VLDL particles. […] Cholesterol transport into VLDL may instead be governed by the charge and structural characteristics of plasma lipoproteins, which may regulate interfacial interactions with specific receptors and cholesterol storage depots on cell surfaces. […] Without wishing to be limited by theory, it is considered that the enhanced uptake of cholesterol from PI-enriched HDL is not facilitated by a scavenger receptor-BI mediated pathway but is associated with a novel protein kinase C dependent uptake pathway. Therefore, it is considered that control of lipoprotein charge by the administration of charged compounds will allow for the manipulation of FC and CE influx/efflux from cell surfaces and the selective control of plasma cholesterol metabolism.

biliary FC output = assay: Biliary FC output after injection of PI or PC vesicles containing [^3H]-FC; type: in vivo, rabbit; conditions: sacrificed at 30 min
Method: Rabbits are injected with 40 μmol PI or PC vesicles containing 400 μCi […]. Animals are sacrificed at 30 min, and bile is aspirated from the gall bladder. In addition the livers are harvested, homogenized and tissue radioactivity determined. Sterol excretion in the faeces is measured similarly except that faecal cholesterol levels are measured over a time period of 96 hours.
Referring now to FIG. 6, there is shown the effect of PI on biliary FC output after rabbits are injected with PI or PC vesicles containing [^3H]-FC. […] Without wishing to be bound by theory, PI may enhance the clearance of cholesterol from plasma and promote its uptake and accumulation in the liver. In addition, PI injection appears to be associated with an increase output of cholesterol into bile. About 20-fold enhanced output of cholesterol into bile is observed (FIG. 6).

[2] = tested on: VLDL, LDL and HDL in human plasma; assay: Lipoprotein charge in human plasma incubated with PI or DOTAP vesicles; type: biochemical; conditions: 24 h at 4° C.; for Lipoprotein Surface Charge LDL: no lipid 2.5; for Lipoprotein Surface Charge VLDL: no lipid 5.5; for Lipoprotein Surface Charge HDL: no lipid 11.8
Method: Different concentrations as shown below of negatively charged phospholipid (PI) or positively charged phospholipid (DOTAP) were added to human plasma and the surface charge on the lipoproteins was determined. The human plasma was incubated with PI or dioleoyl trimethylammonium-propane (DOTAP) vesicles for 24 h at 4° C. and then electrophoresed on 0.5% agarose. Lipoprotein charge was calculated from electrokinetic analyses.

## CCCCCCCC/C=C\CCCCCCCC(=O)O[C@H](COC(=O)CCCCCCCCCCCCCCC)COP(=O)(O)O[C@@H]1[C@H](O)[C@H](O)[C@@H](O)[C@H](O)[C@H]1O [PI, 1-palmitoyl-2-oleoyl phosphatidylinositol]
[1]; after 10 min, initially below detection levels
  level of PI in HDL, of the total HDL-PL: up to 30%
[1]; by 3 h
  HDL-PI content, of the HDL-PL: 5-10%
[^3H]-FC in plasma; after about 1 h
  [^3H]-FC in plasma, of the initial dose: about 15%
[^3H]-FC in plasma; rabbit, in vivo
  half-life of [^3H]-FC shorter than for PC injected rabbits: about 30 fold
HDL, LDL and VLDL; about 10 minutes after injection, background about −12.2 mV prior to injection, estimated from gel migration
  HDL surface potential, peak negative charge: about −18.0 mV
HDL, LDL and VLDL; about 60 min after injection, initial about −3.9 mV, estimated
  LDL surface potential, peak: about −8.0 mV
HDL, LDL and VLDL; after 10 minutes, initial about −8.8 mV, estimated
  VLDL surface potential: about −11.2 mV
HDL, LDL and VLDL; after injection
  time for increased lipoprotein migration to return to normal: about 24 hours
HDL, LDL and VLDL; intravenous injection of vesicles, fasted rabbit
  effect on lipoprotein net negative surface charge / migration of HDL, LDL and VLDL into agarose gel: significant increase; also recorded: increased migration of all lipoprotein fractions
HEPG2 cells
  effect on cellular cholesterol uptake, PI enrichment of LDL: does not
  effect on cellular cholesterol uptake, PI-enrichment of plasma or HDL: stimulates cellular cholesterol uptake
Biliary FC output
  [^3H]-FC in plasma and liver in comparison to PC: reduction of [^3H]-FC in plasma, and an elevation of [^3H]-FC in the liver
Biliary FC output; in comparison to PC
  enhanced output of cholesterol into bile: About 20 fold
[2]; 5 mg/ml
  Lipoprotein Surface Charge LDL: 2.9 -mV
  Lipoprotein Surface Charge VLDL: 6.3 -mV
  Lipoprotein Surface Charge HDL: 12.4 -mV
[2]; 10 mg/ml
  Lipoprotein Surface Charge LDL: 3.3 -mV
  Lipoprotein Surface Charge VLDL: 6.8 -mV
  Lipoprotein Surface Charge HDL: 12.8 -mV
[2]; 50 mg/ml
  Lipoprotein Surface Charge LDL: 3.4 -mV
  Lipoprotein Surface Charge VLDL: 6.9 -mV
  Lipoprotein Surface Charge HDL: 13.2 -mV
[2]; 100 mg/ml
  Lipoprotein Surface Charge LDL: 3.6 -mV
  Lipoprotein Surface Charge VLDL: 7.1 -mV
  Lipoprotein Surface Charge HDL: 13.4 -mV
